Assays:
A549 cells = experiment: Alamar Blue proliferation assay, lung cancer cells; type: cell-based, human; conditions: hsa-miR-34a 30 nM, lipid transfection, 72 hours, normalized to NC (100%)
Text: (§1) The inventors assessed the therapeutic effect of hsa-miR-34a for lung cancer by using eight individual lung cancer cell lines. To measure cellular proliferation of lung cancer cells, the following non-small cell lung cancer (NSCLC) cells were used: cells derived from lung adenocarcinoma (A549, H522, Calu-3, HCC2935), cells derived from lung squamous cell carcinoma (H226), cell derived from lung adenosquamous cell carcinoma (H596), cells derived from lung bronchioalveolar carcinoma (H1650), and cells derived from lung large cell carcinoma (H460). Synthetic hsa-miR-34a (Pre-miR™-hsa-miR-34a, Ambion cat. no. AM17100) or negative control (NC) miRNA (Pre-miR™ microRNA Precursor Molecule-Negative Control #2; Ambion cat. no. AM17111) was delivered via lipid-based transfection into A549, H522, H596, Calu-3, HCC2935, H1650, H460 cells and via electroporation into H226 cells.
(§2) Lipid-based reverse transfections were carried out in triplicate according to a published protocol (Ovcharenko et al., 2005) and the following parameters: cells (5,000-12,000 per 96 well), 0.1-0.2 μl Lipofectamine™ 2000 (cat. no. 11668-019, Invitrogen Corp., Carlsbad, Calif., USA) in 20 μl OptiMEM (Invitrogen), 30 nM final concentration of miRNA in 100 μl. Electroporation of H226 cells was carried out using the BioRad Gene Pulser Xcell™ instrument (BioRad Laboratories Inc., Hercules, Calif., USA) with the following settings: 5×10^6 cells with 5 μg miRNA in 200 μl OptiMEM (1.6 μM miRNA), square wave pulse at 250 V for 5 ms. Electroporated H226 cells were seeded at 7,000 cells per 96-well in a total volume of 100 μl. All cells except for Calu-3 cells were harvested 72 hours post transfection or electroporation for assessment of cellular proliferation. Calu-3 cells were harvested 10 days post transfection. Proliferation assays were performed using Alamar Blue (Invitrogen) following the manufacturer's instructions. As a control for inhibition of cellular proliferation, siRNA against the motor protein kinesin 11, also known as Eg5, was used. Eg5 is essential for cellular survival of most eukaryotic cells and a lack thereof leads to reduced cell proliferation and cell death (Weil et al., 2002). siEg5 was used in lipid-based transfection following the same experimental parameters that apply to miRNA. The inventors also used a DNA topoisomerase II inhibitor, etoposide, at a final concentration of 10 μM and 50 μM as an internal standard for the potency of miRNAs. Etoposide is an FDA-approved DNA topoisomerase II inhibitor in the treatment of lung cancer. […] Percent (%) proliferation values from the Alamar Blue assay were normalized to values from cells treated with negative control miRNA. Percent proliferation of hsa-miR-34a treated cells relative to cells treated with negative control miRNA (100%) is shown in Table 7 and in FIG. 1.

H522 cells = experiment: Alamar Blue proliferation assay, lung cancer cells; type: cell-based, human; conditions: hsa-miR-34a 30 nM, lipid transfection, 72 hours, normalized to NC (100%)
Text: as §1, §2

H460 cells = experiment: Alamar Blue proliferation assay, lung cancer cells; type: cell-based, human; conditions: hsa-miR-34a 30 nM, lipid transfection, 72 hours, normalized to NC (100%)
Text: as §1, §2

HCC2935 cells = experiment: Alamar Blue proliferation assay, lung cancer cells; type: cell-based, human; conditions: hsa-miR-34a 30 nM, lipid transfection, 72 hours, normalized to NC (100%)
Text: as §1, §2

Calu-3 cells = experiment: Alamar Blue proliferation assay, lung cancer cells; type: cell-based, human; conditions: 10 days post transfection
Text: as §1, §2

H596 cells = experiment: Alamar Blue proliferation assay, lung cancer cells; type: cell-based, human; conditions: hsa-miR-34a 30 nM, lipid transfection, 72 hours, normalized to NC (100%)
Text: as §1, §2

H1650 cells = experiment: Alamar Blue proliferation assay, lung cancer cells; type: cell-based, human; conditions: hsa-miR-34a 30 nM, lipid transfection, 72 hours, normalized to NC (100%)
Text: as §1, §2

[1] = tested on: PPC-1 prostate cancer xenograft; experiment: Tumor growth of human prostate cancer xenograft; type: in vivo, NOD/SCID mice
Protocol: Therefore, hsa-miR-34a is likely to interfere with prostate tumor growth in the animal. To explore this possibility, the therapeutic potential of synthetic hsa-miR-34a miRNA was evaluated in the animal using the PPC-1 human prostate cancer xenograft. 5×10^6 PPC-1 cells per animal were electroporated with 1.6 μM synthetic hsa-miR-34a or negative control miRNA (Pre-miR™-hsa-miR-34a, Ambion cat. no. AM17100; NC, Pre-miR™ microRNA Precursor Molecule-Negative Control #2, Ambion cat. no. AM17111), mixed with BD Matrigel™, (BD Biosciences; San Jose, Calif., USA; cat. no. 356237) in a 1:1 ratio and implanted subcutaneously into the lower back of NOD/SCID mice (Charles River Laboratories, Inc.; Wilmington, Mass., USA). A group of 7 mice was injected with hsa-miR-34a treated PPC-1 cells, and a group of 7 animals was injected with PPC-1 cells treated with negative control miRNA. To maintain steady levels of miRNA, 6.25 μg of each hsa-miR-34a or negative control miRNA conjugated with the lipid-based siPORT™ amine delivery agent (Ambion, Austin, Tex.; cat. no. AM4502) were repeatedly administered on days 7, 13, 20, and 25 via intra-tumoral injections. Given an average mouse weight of 20 g, this dose equals 0.3125 mg/kg. Tumor growth was monitored by taking caliper measurements every 1-2 days for 32 days. Tumor volumes were calculated using the formula, Volume=length×width×width/2, in which the length is greater than the width, and plotted over time (FIG. 7). Standard deviations are shown in the graph. All data points had p values<0.01. p values were as low as 1.86×10^−9 for data obtained on day 22, indicating statistical significance.

Jurkat = conditions: cited from earlier work
lung cancer cells (A549) = conditions: cited from earlier work

hsa-miR-34a: synthetic miRNA; mature sequence UGGCAGUGUCUUAGCUGGUUGUU (MIMAT0000255; SEQ ID NO:1) (synthetic miRNA, chemistry not given here)
% proliferation (A549 cells): 75.95%
% proliferation (H522 cells): 94.41%
% proliferation (H460 cells): 77.46%
% proliferation (HCC2935 cells): 80.19%
% proliferation (Calu-3 cells; Calu-3, hsa-miR-34a 30 nM, lipid transfection, normalized to NC (100%)): 28.51%
reduction of proliferation (Calu-3 cells; Calu-3 cells, 30 nM, relative to negative control miRNA): 71.49%
% proliferation (H596 cells): 73.19%
% proliferation (H1650 cells): 78.37%
average tumor volume ([1]; day 32, cells electroporated with 1.6 μM, then 6.25 μg intratumoral on days 7, 13, 20, 25, n=7): 151 mm^3
effect of each single administration on tumor volumes ([1]; mouse, in vivo): acute regression of tumor volumes
tumor growth of PPC-1 xenograft ([1]; repeated dosing): blocked tumor growth
programmed cell death (apoptosis) (Jurkat): increased
proliferation (lung cancer cells (A549)): inhibits the proliferation
